Holding throughout (test): HotSpot kinase profiling
Format in all cases: biochemical

For assay [1], the target named is T1, ROCK1 (Homo sapiens, UniProt Q13464).
T1 construct: purchased Reaction Biology Corp
Put shortly: (§1)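 Activity is measured by radiolabel transfer captured on P81 filters after a 2 h room-temperature reaction of kinase, substrate and cofactors. Values are percent inhibition against DMSO.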

Assay [2] deals with T2, MST1/STK4 (Homo sapiens, UniProt Q13043).
T2 construct: purchased Reaction Biology Corp
T2 sequence (Q13043 1-487): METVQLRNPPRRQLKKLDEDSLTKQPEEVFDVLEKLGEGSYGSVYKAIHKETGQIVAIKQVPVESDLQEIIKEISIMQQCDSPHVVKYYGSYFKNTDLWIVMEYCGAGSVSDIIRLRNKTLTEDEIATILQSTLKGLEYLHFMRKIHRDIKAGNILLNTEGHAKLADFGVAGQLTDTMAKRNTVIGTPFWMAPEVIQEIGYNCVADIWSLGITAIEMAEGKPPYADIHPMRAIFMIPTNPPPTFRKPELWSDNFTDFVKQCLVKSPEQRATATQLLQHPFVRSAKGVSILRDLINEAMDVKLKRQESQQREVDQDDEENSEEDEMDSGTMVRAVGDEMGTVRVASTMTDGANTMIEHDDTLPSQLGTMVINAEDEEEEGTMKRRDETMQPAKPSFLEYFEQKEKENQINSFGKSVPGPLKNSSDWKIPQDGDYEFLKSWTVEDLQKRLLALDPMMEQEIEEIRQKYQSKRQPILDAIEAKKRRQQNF
Put shortly:
as §1

In assay [3] the target is T3, MYO3b (Homo sapiens, UniProt Q8WXR4).
T3 construct: purchased Reaction Biology Corp
T3 sequence (Q8WXR4 1-1341): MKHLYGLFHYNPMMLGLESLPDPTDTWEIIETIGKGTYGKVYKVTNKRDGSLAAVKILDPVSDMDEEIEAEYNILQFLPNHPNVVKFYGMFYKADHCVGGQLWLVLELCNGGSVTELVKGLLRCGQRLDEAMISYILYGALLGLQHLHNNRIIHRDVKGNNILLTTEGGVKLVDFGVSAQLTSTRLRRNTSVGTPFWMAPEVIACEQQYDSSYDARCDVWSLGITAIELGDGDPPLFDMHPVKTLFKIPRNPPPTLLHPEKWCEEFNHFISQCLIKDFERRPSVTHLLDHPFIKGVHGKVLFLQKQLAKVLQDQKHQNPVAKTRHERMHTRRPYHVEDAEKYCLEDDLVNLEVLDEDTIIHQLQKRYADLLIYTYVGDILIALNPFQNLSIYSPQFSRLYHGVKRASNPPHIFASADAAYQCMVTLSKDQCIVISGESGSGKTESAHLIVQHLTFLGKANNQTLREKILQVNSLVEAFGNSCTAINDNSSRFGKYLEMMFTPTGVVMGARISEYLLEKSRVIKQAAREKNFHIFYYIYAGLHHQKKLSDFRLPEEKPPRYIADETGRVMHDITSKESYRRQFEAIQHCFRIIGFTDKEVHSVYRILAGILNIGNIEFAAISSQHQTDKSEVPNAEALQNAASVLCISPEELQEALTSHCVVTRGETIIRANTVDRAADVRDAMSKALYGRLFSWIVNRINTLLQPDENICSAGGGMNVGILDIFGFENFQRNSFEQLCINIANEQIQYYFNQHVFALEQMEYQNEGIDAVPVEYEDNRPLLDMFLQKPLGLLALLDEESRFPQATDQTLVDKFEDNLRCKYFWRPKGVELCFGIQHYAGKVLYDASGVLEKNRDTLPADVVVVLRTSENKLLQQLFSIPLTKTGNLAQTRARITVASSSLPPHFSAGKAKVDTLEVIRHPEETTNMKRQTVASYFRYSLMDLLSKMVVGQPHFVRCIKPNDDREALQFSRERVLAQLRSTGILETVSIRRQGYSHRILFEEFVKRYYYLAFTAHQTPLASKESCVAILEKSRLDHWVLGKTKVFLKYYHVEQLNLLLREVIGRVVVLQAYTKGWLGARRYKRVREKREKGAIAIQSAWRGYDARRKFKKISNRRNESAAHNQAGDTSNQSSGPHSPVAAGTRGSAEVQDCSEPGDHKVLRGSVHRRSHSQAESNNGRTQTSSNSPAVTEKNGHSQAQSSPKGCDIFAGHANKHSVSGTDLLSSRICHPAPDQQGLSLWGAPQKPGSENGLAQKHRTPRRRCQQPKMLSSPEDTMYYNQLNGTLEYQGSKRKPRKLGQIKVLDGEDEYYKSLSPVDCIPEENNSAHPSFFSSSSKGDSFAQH
Put shortly:
as §1

Assay [4] has as its target T4, MEK2 (Homo sapiens, UniProt P36507).
T4 construct: purchased Reaction Biology Corp
The gist of the method: as §1

Assay [5] has as its target T5, CAMKK2 (Homo sapiens, UniProt Q96RR4).
T5 construct: purchased Reaction Biology Corp
The gist of the method: as §1

Assay [6] concerns the target T6, CDK16/cyclin Y (Homo sapiens, UniProt Q00536).
T6 construct: purchased Reaction Biology Corp
The gist of the method: as §1

The target of assay [7] is T7, FES/FPS (Homo sapiens, UniProt P07332).
T7 construct: purchased Reaction Biology Corp
T7 sequence (P07332 whole entry): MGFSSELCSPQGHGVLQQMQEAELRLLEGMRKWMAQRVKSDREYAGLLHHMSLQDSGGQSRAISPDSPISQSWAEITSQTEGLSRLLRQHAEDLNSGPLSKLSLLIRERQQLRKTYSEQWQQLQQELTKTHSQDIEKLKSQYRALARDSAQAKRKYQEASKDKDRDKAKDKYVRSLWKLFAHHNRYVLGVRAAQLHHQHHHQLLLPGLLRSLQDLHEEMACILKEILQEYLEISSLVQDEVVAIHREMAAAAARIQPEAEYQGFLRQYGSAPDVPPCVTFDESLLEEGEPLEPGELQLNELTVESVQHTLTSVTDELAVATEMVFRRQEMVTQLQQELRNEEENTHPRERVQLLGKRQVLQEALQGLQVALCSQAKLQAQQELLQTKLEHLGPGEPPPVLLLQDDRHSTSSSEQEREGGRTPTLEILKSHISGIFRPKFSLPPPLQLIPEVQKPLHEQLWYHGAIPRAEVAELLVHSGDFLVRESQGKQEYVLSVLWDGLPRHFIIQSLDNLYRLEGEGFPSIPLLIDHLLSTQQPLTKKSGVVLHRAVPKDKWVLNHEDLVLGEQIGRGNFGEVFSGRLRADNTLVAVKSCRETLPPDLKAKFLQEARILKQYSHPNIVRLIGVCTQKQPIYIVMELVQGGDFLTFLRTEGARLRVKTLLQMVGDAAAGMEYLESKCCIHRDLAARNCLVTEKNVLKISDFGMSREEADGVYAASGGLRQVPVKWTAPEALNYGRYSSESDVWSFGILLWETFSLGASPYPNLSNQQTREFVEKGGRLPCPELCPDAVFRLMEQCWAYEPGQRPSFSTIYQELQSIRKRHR
Put shortly:
as §1

Assay [8] has as its target T8, PASK (Homo sapiens, UniProt Q96RG2).
T8 construct: purchased Reaction Biology Corp
Put shortly:
as §1

Setting [9] is: read-out: % Enzyme Activity (relative to DMSO controls) Run 1.
The mark [10] stands for this setting: read-out: % Enzyme Activity (relative to DMSO controls) Run 2.

Structures are written as SMILES. Where two headings read alike, the source gives them in different places.

Usually inhibition stands for the relative decrease from the control value, in per cent.

T5 sequence (Q96RR4 whole entry): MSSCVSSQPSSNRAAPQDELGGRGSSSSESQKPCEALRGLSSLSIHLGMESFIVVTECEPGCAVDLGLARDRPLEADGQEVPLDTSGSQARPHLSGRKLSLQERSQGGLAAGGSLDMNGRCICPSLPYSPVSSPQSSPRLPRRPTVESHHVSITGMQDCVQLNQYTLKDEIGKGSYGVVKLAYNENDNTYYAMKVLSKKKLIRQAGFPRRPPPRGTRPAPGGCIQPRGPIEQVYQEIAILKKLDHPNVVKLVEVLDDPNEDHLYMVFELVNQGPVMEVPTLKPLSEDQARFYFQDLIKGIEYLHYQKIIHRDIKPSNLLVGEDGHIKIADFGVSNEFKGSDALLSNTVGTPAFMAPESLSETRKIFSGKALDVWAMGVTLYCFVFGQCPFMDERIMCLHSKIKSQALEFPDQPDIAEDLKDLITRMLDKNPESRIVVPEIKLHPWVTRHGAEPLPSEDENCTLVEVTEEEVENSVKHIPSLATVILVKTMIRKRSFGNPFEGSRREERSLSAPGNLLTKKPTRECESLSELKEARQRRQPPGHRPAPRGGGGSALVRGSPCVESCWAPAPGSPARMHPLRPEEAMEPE
T8 sequence (Q96RG2 whole entry): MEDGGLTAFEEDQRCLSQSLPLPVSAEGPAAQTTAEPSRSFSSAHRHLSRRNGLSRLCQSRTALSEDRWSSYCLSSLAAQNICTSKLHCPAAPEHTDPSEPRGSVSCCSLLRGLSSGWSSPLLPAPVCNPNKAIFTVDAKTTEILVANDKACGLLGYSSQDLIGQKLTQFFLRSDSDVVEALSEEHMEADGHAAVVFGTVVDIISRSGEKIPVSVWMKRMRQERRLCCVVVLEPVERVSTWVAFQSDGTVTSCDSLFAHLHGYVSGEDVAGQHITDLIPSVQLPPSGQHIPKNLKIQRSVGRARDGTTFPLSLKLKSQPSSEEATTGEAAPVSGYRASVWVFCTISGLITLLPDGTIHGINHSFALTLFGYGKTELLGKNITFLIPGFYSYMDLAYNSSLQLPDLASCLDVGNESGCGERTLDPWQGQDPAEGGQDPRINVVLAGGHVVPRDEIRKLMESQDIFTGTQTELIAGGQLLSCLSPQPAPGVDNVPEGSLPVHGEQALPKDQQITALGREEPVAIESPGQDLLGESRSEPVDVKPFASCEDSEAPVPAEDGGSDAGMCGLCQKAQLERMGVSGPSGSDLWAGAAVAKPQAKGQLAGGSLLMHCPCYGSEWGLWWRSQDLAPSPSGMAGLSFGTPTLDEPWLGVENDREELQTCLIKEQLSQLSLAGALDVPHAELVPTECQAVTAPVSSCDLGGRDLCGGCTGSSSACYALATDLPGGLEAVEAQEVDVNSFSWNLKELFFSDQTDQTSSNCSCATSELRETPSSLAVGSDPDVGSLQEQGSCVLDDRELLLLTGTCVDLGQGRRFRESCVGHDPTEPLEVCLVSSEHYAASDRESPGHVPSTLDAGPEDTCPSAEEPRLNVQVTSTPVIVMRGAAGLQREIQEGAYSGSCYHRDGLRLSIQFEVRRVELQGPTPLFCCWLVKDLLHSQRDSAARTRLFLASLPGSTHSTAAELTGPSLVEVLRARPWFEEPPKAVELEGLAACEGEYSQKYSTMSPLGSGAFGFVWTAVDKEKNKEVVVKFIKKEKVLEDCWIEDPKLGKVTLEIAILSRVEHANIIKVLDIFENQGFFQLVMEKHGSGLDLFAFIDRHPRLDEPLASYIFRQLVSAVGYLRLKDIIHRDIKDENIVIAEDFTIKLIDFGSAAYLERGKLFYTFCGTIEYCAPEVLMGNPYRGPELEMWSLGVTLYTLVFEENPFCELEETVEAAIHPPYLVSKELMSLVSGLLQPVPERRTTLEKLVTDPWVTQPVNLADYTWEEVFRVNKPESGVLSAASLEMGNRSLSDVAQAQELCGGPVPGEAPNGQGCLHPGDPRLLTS
T6 sequence (Q00536 whole entry): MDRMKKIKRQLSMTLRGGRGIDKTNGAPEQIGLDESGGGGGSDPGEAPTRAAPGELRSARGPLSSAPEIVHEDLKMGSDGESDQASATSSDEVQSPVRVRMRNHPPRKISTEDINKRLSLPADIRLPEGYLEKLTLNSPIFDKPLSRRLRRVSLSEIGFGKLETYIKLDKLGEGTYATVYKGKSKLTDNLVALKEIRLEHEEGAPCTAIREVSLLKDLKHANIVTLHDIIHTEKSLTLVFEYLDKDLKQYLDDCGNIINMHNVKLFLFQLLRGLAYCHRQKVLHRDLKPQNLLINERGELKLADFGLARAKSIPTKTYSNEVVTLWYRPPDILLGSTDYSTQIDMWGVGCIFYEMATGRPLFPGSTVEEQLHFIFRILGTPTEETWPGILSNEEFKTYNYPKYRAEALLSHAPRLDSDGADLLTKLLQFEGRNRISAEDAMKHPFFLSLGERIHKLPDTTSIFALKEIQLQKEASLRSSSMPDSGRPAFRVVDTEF
T6 sequence (Q8ND76 whole entry partner): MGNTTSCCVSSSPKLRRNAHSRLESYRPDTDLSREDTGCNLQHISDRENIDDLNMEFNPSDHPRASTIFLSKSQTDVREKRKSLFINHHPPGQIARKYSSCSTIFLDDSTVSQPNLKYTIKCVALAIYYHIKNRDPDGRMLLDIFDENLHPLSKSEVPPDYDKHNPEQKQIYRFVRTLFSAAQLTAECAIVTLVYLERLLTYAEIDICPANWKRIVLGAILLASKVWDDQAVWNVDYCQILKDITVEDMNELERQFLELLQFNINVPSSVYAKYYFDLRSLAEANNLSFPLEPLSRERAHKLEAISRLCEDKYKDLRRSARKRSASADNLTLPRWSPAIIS
T4 sequence (P36507 whole entry): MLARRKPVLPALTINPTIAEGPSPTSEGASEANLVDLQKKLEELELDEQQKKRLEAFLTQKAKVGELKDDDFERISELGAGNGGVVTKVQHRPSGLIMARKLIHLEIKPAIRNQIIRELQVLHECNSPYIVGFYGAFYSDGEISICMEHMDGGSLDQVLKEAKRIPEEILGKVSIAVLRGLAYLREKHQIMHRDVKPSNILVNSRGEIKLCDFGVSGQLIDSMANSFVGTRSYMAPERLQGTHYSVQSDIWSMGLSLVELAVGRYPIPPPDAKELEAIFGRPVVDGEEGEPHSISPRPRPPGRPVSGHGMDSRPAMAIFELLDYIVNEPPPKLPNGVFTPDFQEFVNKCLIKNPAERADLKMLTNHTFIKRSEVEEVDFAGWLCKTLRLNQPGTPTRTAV

As for `C=CC(=O)Nc1cccc(Nc2nc(Nc3ccc(OCCOC)c(F)c3)ncc2F)c1` [Compound 2], the inhibition at 3 µM was -6.39% in assay [1]; 30.6% in assay [2]; -2.59% in assay [3]; -5.66% in assay [4]; 26.8% in assay [5]; -3.73% in assay [6]. In addition, the inhibition at 3 µM in assay [7] worked out at 35%; in assay [8] it was 6.14%. Also, the remaining activity at 3 µM was determined as 108% in assay [1] (setting [9]); 105% in assay [1] (setting [10]); 70.2% in assay [2] (setting [9]); 68.7% in assay [2] (setting [10]); 104% in assay [3] (setting [9]); 102% in assay [3] (setting [10]). In addition, the remaining activity at 3 µM in assay [4] (setting [9]) was found to be 106%; in assay [4] (setting [10]) it was 105%; in assay [5] (setting [9]) it was 74.7%; in assay [5] (setting [10]) it was 71.8%; in assay [6] (setting [9]), 104%; in assay [6] (setting [10]) it was 103%. For the same molecule, the remaining activity at 3 µM worked out at 64% in assay [7] (setting [9]), 66% in assay [7] (setting [10]), 94.7% in assay [8] (setting [9]) and 93.1% in assay [8] (setting [10]).
